Laboratory results: paper PMC5681660, “Reduced hepatitis B and D viral entry using clinically applied drugs as novel inhibitors of the bile acid transporter NTCP” (Scientific Reports, 2017)
Structures can show the parent of a compound that is named as a salt.

Target: T1, human NTCP (Homo sapiens, UniProt Q14973)
T1 sequence (Q14973 1-349): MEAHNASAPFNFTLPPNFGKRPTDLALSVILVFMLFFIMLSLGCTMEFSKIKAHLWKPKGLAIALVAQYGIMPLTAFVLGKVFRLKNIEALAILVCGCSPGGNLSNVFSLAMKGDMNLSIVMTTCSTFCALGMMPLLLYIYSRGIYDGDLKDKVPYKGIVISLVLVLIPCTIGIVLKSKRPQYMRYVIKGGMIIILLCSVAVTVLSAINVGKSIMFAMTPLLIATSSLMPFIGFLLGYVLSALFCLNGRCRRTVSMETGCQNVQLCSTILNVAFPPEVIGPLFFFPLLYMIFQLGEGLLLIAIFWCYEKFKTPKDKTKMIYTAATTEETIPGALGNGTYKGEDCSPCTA
Test: Screening taurocholate uptake assay (96-well, [14C]taurocholate, 10 µM drug)
Conditions: for B-score functional assay: screening taurocholate uptake, 10 µM drug

[1] = combined ranking of functional and binding screening assays
[2] = ranking over the functional and the binding screening assay

| SMILES | Ranking score [1] | B-score functional assay | Ranking score [2] | B-score functional assay (B-score) |
| --- | --- | --- | --- | --- |
| CC(C)NCC(O)c1cc(O)cc(O)c1.CC(C)NCC(O)c1cc(O)cc(O)c1.O=S(=O)(O)O (stereo not shown) | 489.878 | 0.057 | – | – |
| Cl.Cl.c1ccc2c(c1)CCCc1cc(NCCN3CCOCC3)nnc1-2 | – | -1.983 | 77.0714 | – |
| CC=CC(=O)N(CC)c1ccccc1C (mixture of isomers) [Crotamiton] | – | -0.004 | 248.379 | – |
| C#C[C@]1(OC(C)=O)CC[C@H]2[C@@H]3CCC4=CC(=NO)CC[C@@H]4[C@H]3CC[C@@]21CC (mixture of isomers) [Norgestimate] | – | -2.463 | 95.4987 | – |
| CNCC(O)c1ccc(O)cc1 (racemic) [(+,-)-Synephrine] | 485.351 | -0.397 | – | – |
| CN(Cc1cnc2nc(N)nc(N)c2n1)c1ccc(C(=O)N[C@@H](CCC(=O)O)C(=O)O)cc1 (racemic) [Amethopterin (R,S)] | 579.365 | -0.795 | – | – |
| Nc1c2c(nc3ccccc13)CCCC2O.O=C(O)/C=C\C(=O)O (racemic) [Hydroxytacrine maleate (R,S)] | – | 2.059 | 180.3 | – |
| CC(=O)NC1CCSC1=O (racemic) [N-Acetyl-DL-homocysteine Thiolactone] | 563.625 | 0.096 | – | – |
| O=C1c2cccc(O)c2C(=O)c2c(O)cccc21 [1,8-Dihydroxyanthraquinone] | 1173.42 | – | – | 1.277 |
| Nc1ccccc1S(N)(=O)=O [2-Aminobenzenesulfonamide] | 626.378 | -0.592 | – | – |
| CC(C)(C)NC[C@@H](O)COc1cccc2c1CCCC2=O.Cl [(+) -Levobunolol hydrochloride] | 464.377 | -1.002 | – | – |
| CC(C)NC[C@H](O)COc1cccc2ccccc12 [(S)-propranolol hydrochloride] | 599.166 | -0.168 | – | – |
| Nc1nc(NC2CC2)c2ncn([C@H]3C=C[C@@H](CO)C3)c2n1 [Abacavir Sulfate] | 1184.97 | – | – | 2.371 |
| CC(=O)NCCCS(=O)(=O)O [Acamprosate calcium] | – | -0.535 | 126.206 | – |
| CC(=O)OC1CN2CCC1CC2 (stereo not shown) [Aceclidine Hydrochloride] | – | -1.773 | 189.214 | – |
| CC(=O)N[C@@H](CS)C(=O)O [Acetylcysteine] | 542.19 | -1.045 | – | – |
| CC(=O)Oc1ccccc1C(=O)O [Acetylsalicylic acid] | 1161.38 | – | – | 2.017 |
| COc1ccc(-c2ccc3cc(C(=O)O)ccc3c2)cc1C12CC3CC(CC(C3)C1)C2 [Adapalene] | 620.435 | 0.202 | – | – |
| CCC(=O)OCC(=O)[C@@]1(OC(=O)CC)[C@H](C)C[C@H]2[C@H]3[C@H]([C@@H](O)C[C@@]21C)[C@@]1(C)C=CC(=O)C=C1C[C@H]3Cl [Alclometasone dipropionate] | – | -2.188 | 175.417 | – |
| CCCCC(CC)CNC(=N)NC(=N)NCCCCCCNC(=N)NC(=N)NCC(CC)CCCC (stereo not shown) [Alexidine dihydrochloride] | – | -9.197 | 6.481 | – |
| C=C1/C(=C\C=C2/CCC[C@]3(C)[C@@H]([C@H](C)CCCC(C)C)CC[C@@H]23)C[C@@H](O)C[C@@H]1O [Alfacalcidol] | 594.47 | -0.117 | – | – |
| COc1cc2nc(N(C)CCCNC(=O)C3CCCO3)nc(N)c2cc1OC (stereo not shown) [Alfuzosin hydrochloride] | – | -2.737 | 237.095 | – |
| CC(=O)[C@@]12O[C@](C)(c3ccccc3)O[C@@H]1C[C@H]1[C@@H]3CCC4=CC(=O)CC[C@]4(C)[C@H]3CC[C@@]12C [Algestone acetophenide] | – | -2.799 | 142.566 | – |
